Tests used:
Format in all cases: cell-based
[1] = target: T1, EGFR exon 20 NPG Ins D770_N771 (Ba/F3 cells) (Homo sapiens, UniProt P00533, INS770NPG); assay: Inhibitor activity on EGFR phosphorylation (pEGFR AlphaLISA, 2 h), Ba/F3 EGFR exon 20 NPG Ins
T1 construct: expressed in transfected cells; host or cells: Ba/F3 (murine pro-B cells), retroviral transduction, puromycin selection, IL3-independent pool
From the text: Example B. Inhibitor Activity on EGFR phosphorylation (pEGFR)
EGFR mutant Ba/F3 cells were generated by transduction with retrovirus containing vectors expressing EGFR L858R, EGFR exon 19del, EGFR L858R/C797S, EGFR exon 20 NPG Ins D770_N771, EGFR exon 20 ASV Ins V769_D770, or EGFR exon 20 SVD Ins D770_N771 genes along with a puromycin selection marker. Transduced cells are selected with puromycin for 7 days and are then be transferred into culture media without Interleukin 3 (IL3). Surviving cells are confirmed to express EGFR by Western blot and maintained as a pool. CUTO14 cells were obtained from Dr. Robert C. Doebele at the University of Colorado. The IC50 date are included in Table 6 and Table 7.
1.1 Cells are harvested from flask into cell culture medium and the cell number counted.
1.2 Cells are diluted with culture medium to the desired density and 40 μL of cell suspension is added into each well of 384-well cell culture plate and the seeding density is 50K cells/well (Ba/F3) or 12.5K cells/well (CUTO14).
2 Compound Preparation and Treatment
2.1 Test compounds are dissolved to 10 mM in a DMSO stock solution. 45 μL of stock solution is transferred to a 384 polypropylene plate (pp-plate). Perform 3-fold, 10-point dilution via transferring 15 μL compound into 30 μL DMSO using a TECAN (EVO200) liquid handler.
2.2 Spin plates at room temperature at 1,000 RPM for 1 minute.
2.3 Transfer 5 nL of diluted compound from compound source plate into the cell plate.
2.4 After compound treatment for 2 hours, perform pEGFR detection by AlphaLISA for compound treatment plates as described in “Detection” section.
3 Detection by pEGFR AlphaLISA (Perkin-Elmer)
3.1 Plates are removed from incubators and equilibrated at room temperature for 10 minutes, and media was removed
3.2 10 μL of lysis buffer is added and plates shaken at 600 rpm for 1 hr.
3.3 Prepare acceptor mix just before use and dispense 5 μL of acceptor mix to all the wells. Shake 350 rpm for Ihr in the dark
3.4 Prepare donor mix under low light conditions prior to use. Dispense 5 μL of donor mix to all the wells. Mix well on the shaker, seal and wrap in aluminum foil and incubate 1.5 hrs at room temperature in the dark
3.5 Transfer 18.5 μL mixture to OptiPlate 384, and read using an Envision. The IC50 date were included in Table 6 and Table 7.

[2] = target: T1, EGFR exon 20 NPG Ins D770_N771 (Ba/F3 cells); assay: Inhibitor activity on EGFR-dependent cell growth (CellTiter-Glo, 72 h), Ba/F3 EGFR exon 20 NPG Ins; conditions: read-out: BaF3 NPG IC50
Method in brief: (§1)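 IC50s derive from a sigmoidal dose–response fit of CellTiter-Glo signal. The signal was normalised between […]-treated cells and cell-free medium. Ba/F3 mutant-EGFR cells, seeded at 400–800/well depending on the line, had 72 h of exposure to a 10-point, 3-fold compound series.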

EGFR WT (Ba/F3 cells) = target: T2, EGFR WT (Ba/F3 cells) (Homo sapiens, UniProt P00533); assay: Inhibitor activity on EGFR-dependent cell growth (CellTiter-Glo, 72 h), Ba/F3 EGFR WT; conditions: read-out: BaF3 WT IC50
T2 construct: expressed in transfected cells; host or cells: Ba/F3 (murine pro-B cells), retroviral transduction, puromycin selection, maintained with EGF
T2 sequence (P00533 25-1210): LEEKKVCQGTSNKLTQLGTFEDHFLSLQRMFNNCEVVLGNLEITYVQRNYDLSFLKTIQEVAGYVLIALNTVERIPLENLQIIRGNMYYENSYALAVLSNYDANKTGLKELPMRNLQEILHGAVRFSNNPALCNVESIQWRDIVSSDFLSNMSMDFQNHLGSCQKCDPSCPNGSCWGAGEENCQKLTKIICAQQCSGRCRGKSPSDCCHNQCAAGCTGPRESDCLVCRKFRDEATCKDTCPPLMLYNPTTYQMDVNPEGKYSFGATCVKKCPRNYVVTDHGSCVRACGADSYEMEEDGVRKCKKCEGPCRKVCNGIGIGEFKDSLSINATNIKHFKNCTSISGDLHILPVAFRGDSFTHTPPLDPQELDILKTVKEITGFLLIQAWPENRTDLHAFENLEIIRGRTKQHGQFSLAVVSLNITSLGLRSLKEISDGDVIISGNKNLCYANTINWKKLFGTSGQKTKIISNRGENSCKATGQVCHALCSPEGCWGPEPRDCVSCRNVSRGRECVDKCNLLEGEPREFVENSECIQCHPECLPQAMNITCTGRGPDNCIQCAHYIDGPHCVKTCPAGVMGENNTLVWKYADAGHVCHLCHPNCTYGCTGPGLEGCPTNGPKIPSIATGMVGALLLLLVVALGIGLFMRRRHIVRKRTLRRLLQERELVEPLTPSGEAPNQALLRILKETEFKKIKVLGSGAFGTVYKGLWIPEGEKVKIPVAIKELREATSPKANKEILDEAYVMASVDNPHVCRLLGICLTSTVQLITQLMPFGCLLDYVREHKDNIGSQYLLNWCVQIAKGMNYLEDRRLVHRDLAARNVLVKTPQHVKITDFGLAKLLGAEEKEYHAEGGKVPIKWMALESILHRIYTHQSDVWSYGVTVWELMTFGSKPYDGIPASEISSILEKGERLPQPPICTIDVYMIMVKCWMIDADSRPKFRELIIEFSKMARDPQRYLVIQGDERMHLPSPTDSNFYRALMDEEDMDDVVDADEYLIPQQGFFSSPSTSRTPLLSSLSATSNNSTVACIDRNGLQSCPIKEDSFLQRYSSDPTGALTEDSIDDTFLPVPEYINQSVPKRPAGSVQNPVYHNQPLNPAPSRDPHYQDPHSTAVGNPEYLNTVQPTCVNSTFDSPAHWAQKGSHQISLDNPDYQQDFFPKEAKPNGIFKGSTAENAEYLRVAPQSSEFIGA
Method in brief: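 This growth assay used Ba/F3 cells that depend on wild-type EGFR and are kept in EGF without IL3. Compounds were made up as 10 mM DMSO stocks and diluted 3-fold over 10 points. 120 nL went onto 600 cells/well. After 72 hours, 40 μL CellTiter-Glo was added and luminescence read on EnVision after 30 min.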

[3] = target: T3, EGFR exon 20 SVD Ins D770_N771 (Ba/F3 cells) (Homo sapiens, UniProt P00533, INS770SVD); assay: Inhibitor activity on EGFR-dependent cell growth (CellTiter-Glo, 72 h), Ba/F3 EGFR exon 20 SVD Ins; conditions: read-out: BaF3 SVD IC50
T3 construct: expressed in transfected cells; host or cells: Ba/F3 (murine pro-B cells), retroviral transduction, puromycin selection, IL3-independent pool
T3 sequence (P00533 with tags, fused parts or gaps INS770SVD): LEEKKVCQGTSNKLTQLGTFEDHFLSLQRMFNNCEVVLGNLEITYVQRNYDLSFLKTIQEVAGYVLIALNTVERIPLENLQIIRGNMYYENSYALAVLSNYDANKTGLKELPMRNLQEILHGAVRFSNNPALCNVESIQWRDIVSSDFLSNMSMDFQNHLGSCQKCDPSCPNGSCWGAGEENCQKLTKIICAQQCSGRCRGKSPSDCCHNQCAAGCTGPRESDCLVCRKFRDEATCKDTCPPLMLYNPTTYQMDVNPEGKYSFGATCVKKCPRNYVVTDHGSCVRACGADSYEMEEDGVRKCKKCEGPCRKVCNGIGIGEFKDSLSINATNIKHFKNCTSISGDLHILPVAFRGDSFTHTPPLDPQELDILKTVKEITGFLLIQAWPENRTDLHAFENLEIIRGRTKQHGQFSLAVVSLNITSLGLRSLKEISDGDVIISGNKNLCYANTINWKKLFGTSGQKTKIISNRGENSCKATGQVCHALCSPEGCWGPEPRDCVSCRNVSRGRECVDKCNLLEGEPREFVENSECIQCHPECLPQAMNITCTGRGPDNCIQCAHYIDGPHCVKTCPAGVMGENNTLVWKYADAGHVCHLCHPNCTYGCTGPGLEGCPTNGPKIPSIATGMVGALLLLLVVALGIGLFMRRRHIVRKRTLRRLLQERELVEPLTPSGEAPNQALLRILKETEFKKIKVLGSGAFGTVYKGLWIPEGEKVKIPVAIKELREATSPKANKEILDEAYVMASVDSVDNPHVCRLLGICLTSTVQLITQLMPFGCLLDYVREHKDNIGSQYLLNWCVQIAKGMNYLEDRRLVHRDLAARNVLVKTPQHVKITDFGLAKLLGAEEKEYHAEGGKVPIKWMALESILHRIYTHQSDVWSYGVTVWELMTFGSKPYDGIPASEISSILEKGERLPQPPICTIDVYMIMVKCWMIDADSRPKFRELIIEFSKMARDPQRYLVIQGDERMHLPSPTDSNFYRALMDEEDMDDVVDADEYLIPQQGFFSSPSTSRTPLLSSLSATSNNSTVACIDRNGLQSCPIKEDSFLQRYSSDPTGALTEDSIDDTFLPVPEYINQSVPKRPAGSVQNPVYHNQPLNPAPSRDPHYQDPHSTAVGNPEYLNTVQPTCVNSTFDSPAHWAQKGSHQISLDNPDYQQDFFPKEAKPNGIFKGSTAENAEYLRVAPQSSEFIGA
Method in brief: as §1

[4] = target: T4, EGFR exon 20 FQEA Ins A763_V764 (Ba/F3 cells) (Homo sapiens, UniProt P00533, INS763FQEA); assay: Inhibitor activity on EGFR-dependent cell growth (CellTiter-Glo, 72 h), Ba/F3 EGFR exon 20 FQEA Ins; conditions: read-out: BaF3 FQEA IC50
T4 construct: expressed in transfected cells; host or cells: Ba/F3 (murine pro-B cells), retroviral transduction, puromycin selection, IL3-independent pool
Method in brief: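 72 h proliferation, Ba/F3 EGFR mutants (no IL3, puromycin-selected pools, EGFR confirmed by Western blot). Seeding of 400 L858R, 600 L858R/C797S and 800 exon 19del/FQEA cells per well. CellTiter-Glo used; controls were […] (high) and medium alone (low).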

[5] = target: T5, EGFR exon 20 ASV Ins V769_D770 (Ba/F3 cells) (Homo sapiens, UniProt P00533, INS769ASV); assay: Inhibitor activity on EGFR-dependent cell growth (CellTiter-Glo, 72 h), Ba/F3 EGFR exon 20 ASV Ins; conditions: read-out: BaF3 ASV IC50
T5 construct: expressed in transfected cells; host or cells: Ba/F3 (murine pro-B cells), retroviral transduction, puromycin selection, IL3-independent pool
T5 sequence (P00533 with tags, fused parts or gaps INS769ASV): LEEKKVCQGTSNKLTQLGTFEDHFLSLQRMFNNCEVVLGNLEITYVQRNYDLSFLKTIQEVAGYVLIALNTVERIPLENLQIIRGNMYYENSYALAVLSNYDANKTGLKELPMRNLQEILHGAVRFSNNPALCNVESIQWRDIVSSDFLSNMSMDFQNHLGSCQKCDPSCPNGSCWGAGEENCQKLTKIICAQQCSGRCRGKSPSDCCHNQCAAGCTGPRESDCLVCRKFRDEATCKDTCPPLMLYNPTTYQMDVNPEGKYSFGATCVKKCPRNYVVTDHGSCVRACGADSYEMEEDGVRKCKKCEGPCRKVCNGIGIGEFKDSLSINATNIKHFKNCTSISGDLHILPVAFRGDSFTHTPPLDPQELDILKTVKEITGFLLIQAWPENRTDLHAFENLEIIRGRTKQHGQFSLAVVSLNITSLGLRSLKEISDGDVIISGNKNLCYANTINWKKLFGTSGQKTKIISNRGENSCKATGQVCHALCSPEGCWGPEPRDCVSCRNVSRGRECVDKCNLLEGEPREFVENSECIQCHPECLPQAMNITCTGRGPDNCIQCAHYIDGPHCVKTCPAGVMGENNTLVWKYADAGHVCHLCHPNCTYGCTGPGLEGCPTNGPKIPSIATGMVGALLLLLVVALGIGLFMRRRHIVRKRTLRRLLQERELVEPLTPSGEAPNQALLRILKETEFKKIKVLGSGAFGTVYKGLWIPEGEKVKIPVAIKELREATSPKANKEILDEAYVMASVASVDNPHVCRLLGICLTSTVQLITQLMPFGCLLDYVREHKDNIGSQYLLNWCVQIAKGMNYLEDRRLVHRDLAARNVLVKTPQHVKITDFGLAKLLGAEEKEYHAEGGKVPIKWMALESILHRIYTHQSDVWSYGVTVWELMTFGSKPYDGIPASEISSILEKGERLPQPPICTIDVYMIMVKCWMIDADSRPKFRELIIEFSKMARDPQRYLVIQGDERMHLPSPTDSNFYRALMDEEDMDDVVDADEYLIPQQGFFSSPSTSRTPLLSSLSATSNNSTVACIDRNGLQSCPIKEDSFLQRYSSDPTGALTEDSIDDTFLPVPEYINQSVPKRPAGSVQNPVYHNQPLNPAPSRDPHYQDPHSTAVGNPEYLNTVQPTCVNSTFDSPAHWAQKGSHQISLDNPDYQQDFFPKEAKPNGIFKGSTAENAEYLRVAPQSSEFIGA
Method in brief: as §1

[6] = target: T5, EGFR exon 20 ASV Ins V769_D770 (Ba/F3 cells); assay: Inhibitor activity on EGFR phosphorylation (pEGFR AlphaLISA, 2 h), Ba/F3 EGFR exon 20 ASV Ins; conditions: EGFR phosphorylation, AlphaLISA, 2 hours; read-out: ASV IC50 (pEGFR)
Method in brief: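 IC50 values reflect inhibition of cellular EGFR phosphorylation, measured by AlphaLISA in lysates. Engineered Ba/F3 pools expressing mutant EGFR, selected with puromycin and cultured IL3-free, or CUTO14 cells, were exposed to compound for 2 hours.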

T1 sequence (P00533 with tags, fused parts or gaps INS770NPG): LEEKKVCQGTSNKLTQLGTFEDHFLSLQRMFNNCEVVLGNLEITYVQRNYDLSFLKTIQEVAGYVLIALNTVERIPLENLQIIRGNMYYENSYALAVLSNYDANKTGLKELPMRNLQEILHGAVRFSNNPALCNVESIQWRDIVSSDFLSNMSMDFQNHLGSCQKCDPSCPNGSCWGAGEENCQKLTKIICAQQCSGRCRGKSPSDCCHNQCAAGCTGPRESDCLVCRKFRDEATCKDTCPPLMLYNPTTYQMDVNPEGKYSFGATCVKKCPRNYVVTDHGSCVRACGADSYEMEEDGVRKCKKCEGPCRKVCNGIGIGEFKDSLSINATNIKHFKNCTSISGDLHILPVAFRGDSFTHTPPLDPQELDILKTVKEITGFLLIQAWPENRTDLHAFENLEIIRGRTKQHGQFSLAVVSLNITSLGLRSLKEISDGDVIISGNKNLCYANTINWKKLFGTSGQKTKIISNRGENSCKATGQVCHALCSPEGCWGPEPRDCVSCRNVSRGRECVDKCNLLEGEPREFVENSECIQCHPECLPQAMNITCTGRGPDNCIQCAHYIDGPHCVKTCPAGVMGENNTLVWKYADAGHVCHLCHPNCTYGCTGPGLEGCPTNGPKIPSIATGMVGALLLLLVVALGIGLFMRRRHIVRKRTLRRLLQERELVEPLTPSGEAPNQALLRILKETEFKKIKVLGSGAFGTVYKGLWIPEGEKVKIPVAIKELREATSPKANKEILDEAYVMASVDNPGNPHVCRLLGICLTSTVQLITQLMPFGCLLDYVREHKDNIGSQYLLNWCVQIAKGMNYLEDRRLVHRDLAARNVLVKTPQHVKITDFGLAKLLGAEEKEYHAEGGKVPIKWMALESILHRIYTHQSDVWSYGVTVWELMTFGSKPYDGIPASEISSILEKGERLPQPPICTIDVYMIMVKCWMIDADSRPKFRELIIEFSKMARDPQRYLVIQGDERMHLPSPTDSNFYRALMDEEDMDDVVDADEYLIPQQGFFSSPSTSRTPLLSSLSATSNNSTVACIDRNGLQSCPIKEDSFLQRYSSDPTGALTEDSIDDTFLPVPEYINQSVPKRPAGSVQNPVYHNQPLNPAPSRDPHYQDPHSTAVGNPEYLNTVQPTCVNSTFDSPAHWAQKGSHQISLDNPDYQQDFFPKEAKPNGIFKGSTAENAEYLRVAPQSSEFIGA

Structure (SMILES) | IC50 [1] | IC50 [2] | IC50 (EGFR WT (Ba/F3 cells)) | IC50 [3] | IC50 [4] | IC50 [5] | IC50 [6]
COc1c(F)cccc1Nc1c(-c2ncnc3sccc23)[nH]c2c1C(=O)NCC2 [compound 138] | > 1000 nM | > 1000 nM | > 1000 nM | – | – | – | –
COc1c(F)cccc1Nc1c(-c2ccnc(-c3ccccc3)c2)[nH]c2c1C(=O)NCC2 [Compound 159, 3-((3-fluoro-2-methoxyphenyl)amino)-2-(2-phenylpyridin-4-yl)-1,5,6,7-tetrahydro-4H-pyrrolo[3,2-c]pyridin-4-one] | > 1000 nM | > 1000 nM | 100 to 1000 nM | – | – | – | –
COc1cc2nccc(-c3[nH]c4c(c3Nc3cccc(F)c3C)C(=O)NCC4)c2nc1OC [Compound 808, 2-(6,7-dimethoxy-1,5-naphthyridin-4-yl)-3-[(3-fluoro-2-methylphenyl)amino]-1H,5H,6H,7H-pyrrolo[3,2-c]pyridin-4-one] | < 100 nM | – | < 100 nM | < 100 nM | < 100 nM | < 100 nM | –
COc1c(F)cccc1Nc1c(-c2snc3ccccc23)[nH]c2c1C(=O)NCC2 [Compound 157, 2-(benzo[c]isothiazol-3-yl)-3-((3-fluoro-2-methoxyphenyl)amino)-1,5,6,7-tetrahydro-4H-pyrrolo[3,2-c]pyridin-4-one] | > 1000 nM | > 1000 nM | 100 to 1000 nM | – | – | – | –
C=CC(=O)N1CCC2(CC1)CNC(=O)c1c2[nH]c(-c2ccncc2F)c1Nc1cccc(F)c1CC [Compound 557, 3′-[(2-ethyl-3-fluorophenyl)amino]-2′-(3-fluoropyridin-4-yl)-1-(prop-2-enoyl)-5′,6′-dihydro-1′H-spiro[piperidine-4,7′-pyrrolo[3,2-c]pyridin]-4′-one] | < 100 nM | < 100 nM | < 100 nM | < 100 nM | – | < 100 nM | –
COc1c(F)cccc1Nc1c(-c2ncnc3c2ccn3C)[nH]c2c1C(=O)NCC2 [Compound 150, 3-((3-fluoro-2-methoxyphenyl)amino)-2-(7-methyl-7H-pyrrolo[2,3-d]pyrimidin-4-yl)-1,5,6,7-tetrahydro-4H-pyrrolo[3,2-c]pyridin-4-one] | > 1000 nM | > 1000 nM | > 1000 nM | – | – | – | –
COc1nc2c(-c3[nH]c4c(c3Nc3cccc(F)c3OC)C(=O)NCC4)ccnc2cc1C [Compound 682, 3-[(3-fluoro-2-methoxyphenyl)amino]-2-(6-methoxy-7-methyl-1,5-naphthyridin-4-yl)-1H,5H,6H,7H-pyrrolo[3,2-c]pyridin-4-one] | < 100 nM | < 100 nM | < 100 nM | – | – | – | –
COc1c(F)cccc1Nc1c(-c2ncnc3[nH]ncc23)[nH]c2c1C(=O)NCC2 [Compound 158, 3-((3-fluoro-2-methoxyphenyl)amino)-2-(1H-pyrazolo[3,4-d]pyrimidin-4-yl)-1,5,6,7-tetrahydro-4H-pyrrolo[3,2-c]pyridin-4-one] | 100 to 1000 nM | > 1000 nM | > 1000 nM | – | – | – | –
COc1c(F)cccc1Nc1c(-c2ccnc(N)n2)[nH]c2c1C(=O)NCC2 [compound 281] | < 100 nM | < 100 nM | > 1000 nM | – | 100 to 1000 nM | – | –
COc1c(Cl)cccc1Nc1c(-c2ccnc(NCC(F)F)n2)[nH]c2c1C(=O)NCC2 [Compound 702, 3-[(3-chloro-2-methoxyphenyl)amino]-2-[2-[(2,2-difluoroethyl)amino]pyrimidin-4-yl]-1H,5H,6H,7H-pyrrolo[3,2-c]pyridin-4-one] | – | 100 to 1000 nM | > 1000 nM | 100 to 1000 nM | 100 to 1000 nM | 100 to 1000 nM | 100 to 1000 nM
COc1c(F)cccc1Nc1c(-c2snc3cccnc23)[nH]c2c1C(=O)NCC2 [Compound 156, 3-((3-fluoro-2-methoxyphenyl)amino)-2-(isothiazolo[4,3-b]pyridin-3-yl)-1,5,6,7-tetrahydro-4H-pyrrolo[3,2-c]pyridin-4-one] | – | > 1000 nM | > 1000 nM | > 1000 nM | > 1000 nM | > 1000 nM | > 1000 nM

Continued, values first:

IC50 [1] | IC50 [2] | IC50 (EGFR WT (Ba/F3 cells)) | IC50 [3] | IC50 [4] | IC50 [5] | IC50 [6] | Structure (SMILES)
< 100 nM | < 100 nM | < 100 nM | < 100 nM | – | < 100 nM | – | C=CC(=O)N1CCN(c2ncc3nccc(-c4[nH]c5c(c4Nc4cccc(F)c4OC)C(=O)NCC5)c3n2)CC1 [Compound 576, 3-[(3-fluoro-2-methoxyphenyl)amino]-2-{2-[4-(prop-2-enoyl)piperazin-1-yl]pyrido[3,2-d]pyrimidin-8-yl}-1H,5H,6H,7H-pyrrolo[3,2-c]pyridin-4-one]
< 100 nM | < 100 nM | > 1000 nM | < 100 nM | – | < 100 nM | – | COc1c(Cl)cccc1Nc1c(-c2ccnc(N)n2)[nH]c2c1C(=O)NC[C@@H]2C[C@@H]1COCCO1 [Compound 532, (7S)-2-(2-aminopyrimidin-4-yl)-3-[(3-chloro-2-methoxyphenyl)amino]-7-[(2R)-1,4-dioxan-2-ylmethyl]-1H,5H,6H,7H-pyrrolo[3,2-c]pyridin-4-one]
< 100 nM | < 100 nM | < 100 nM | < 100 nM | – | < 100 nM | – | C=CC(=O)N1CCC(Oc2nc3c(-c4[nH]c5c(c4Nc4cccc(Cl)c4OC)C(=O)NCC5)ccnc3cc2OC)CC1 [Compound 731, 3-[(3-chloro-2-methoxyphenyl)amino]-2-(7-methoxy-6-{[1-(prop-2-enoyl)piperidin-4-yl]oxy}-1,5-naphthyridin-4-yl)-1H,5H,6H,7H-pyrrolo[3,2-c]pyridin-4-one]
< 100 nM | < 100 nM | 100 to 1000 nM | < 100 nM | < 100 nM | < 100 nM | – | COc1c(Cl)cccc1Nc1c(-c2ccnc(Nc3cn(C)nn3)n2)[nH]c2c1C(=O)NCC2 [compound 511, 3-[(3-chloro-2-methoxyphenyl)amino]-2-{2-[(1-methyl-1,2,3-triazol-4-yl)amino]pyrimidin-4-yl}-1H,5H,6H,7H-pyrrolo[3,2-c]pyridin-4-one]
< 100 nM | < 100 nM | – | < 100 nM | < 100 nM | < 100 nM | – | COc1ccc2nccc(-c3[nH]c4c(c3Nc3cccc(Cl)c3OC)C(=O)NCC4)c2n1 [Compound 149, 3-((3-chloro-2-methoxyphenyl)amino)-2-(6-methoxy-1,5-naphthyridin-4-yl)-1,5,6,7-tetrahydro-4H-pyrrolo[3,2-c]pyridin-4-one]
< 100 nM | < 100 nM | 100 to 1000 nM | < 100 nM | < 100 nM | < 100 nM | – | COc1c(F)cccc1Nc1c(-c2ccnc3cccnc23)[nH]c2c1C(=O)NCC2 [compound 442]
